Key:
[1] = Positive allosteric modulator activity at human T1R2/T1R3 expressed in PEAKrapid cells assessed as potentiation of sucrose-induced intracellular calcium influx by measuring sucrose EC50 at 30 uM measured for 120 secs by fluorescence based assay (Rvb = 31.7 mM)
[2] = Positive allosteric modulator activity at human T1R2/T1R3 expressed in PEAKrapid cells assessed as potentiation of sucrose-induced intracellular calcium influx by measuring sucrose EC50 at 50 uM measured for 120 secs by fluorescence based assay (Rvb = 31.7 mM)

Work on `CC(C)(C)OC(=O)NCc1ccc(-c2cncc(C(=O)O)c2N)o1` yielded an EC50 [1] of 24.5 mM.

Work on `CC(C)C(=O)NCc1ccc(-c2cncc(C(=O)O)c2N)o1` yielded an EC50 [1] of 22.1 mM.

For `Nc1c(C(=O)O)cncc1-c1cccs1`, the EC50 [2] was 21 mM.

`Nc1c(C(=O)O)cncc1-c1ccccc1` gave an EC50 [2] of 21.5 mM.

In the case of `C[C@@H](CC(=O)Nc1cncc(C(=O)O)c1N)NC(=O)[C@@H](N)C1CCCCC1`, the EC50 [1] is reported as 10.2 mM.

`CC(C)CC(=O)NCc1ccc(-c2cncc(C(=O)O)c2N)o1` gave an EC50 [1] of 18.3 mM.

Work on `CC(C)[C@H](N)C(=O)NCc1ccc(-c2cncc(C(=O)O)c2N)o1` yielded an EC50 [1] of 14.6 mM.

In the case of `Nc1c(NC(=O)CCCCCCNC(=O)[C@@H](N)C2CCCCC2)cncc1C(=O)O`, the EC50 [1] is reported as 20.2 mM.

Work on `Nc1c(NC(=O)CCCCNC(=O)[C@@H](N)C2CCCCC2)cncc1C(=O)O` yielded an EC50 [1] of 7.8 mM.

Compound `CC[C@H](C)[C@@H](CCC(=O)Nc1cncc(C(=O)O)c1N)NC(=O)[C@@H](N)C1CCCCC1` has an EC50 [1] of 8.9 mM.

Compound `Cc1nc2ccccc2c(N)c1C(=O)O` has an EC50 [1] of 15.9 mM.

Work on `Nc1c(C(=O)O)cncc1-c1ccco1` yielded an EC50 [2] of 16.8 mM.

`CC(C)CNC(=O)NCc1ccc(-c2cncc(C(=O)O)c2N)o1` showed an EC50 [1] of 21.6 mM.

With `CC(C)(CC(=O)Nc1cncc(C(=O)O)c1N)NC(=O)[C@@H](N)C1CCCCC1` the EC50 [1] was 2.2 mM.

In the case of `Nc1c(C(=O)O)cncc1-c1ccc(CNC(=O)[C@@H](N)C2CCCCC2)o1`, the EC50 [1] is reported as 5.8 mM.

Compound `Nc1c(NC(=O)CCCNC(=O)[C@@H](N)C2CCCCC2)cncc1C(=O)O` has an EC50 [1] of 16.2 mM.

Work on `CC(C)C[C@H](N)C(=O)NCc1ccc(-c2cncc(C(=O)O)c2N)o1` yielded an EC50 [1] of 11.1 mM.

In the case of `CC(C)[C@@H](CCC(=O)Nc1cncc(C(=O)O)c1N)NC(=O)[C@@H](N)C1CCCCC1`, the EC50 [1] is reported as 10.5 mM.

For `Cc1nc2cccc(OCC(C)(C)C(=O)NC(C)C)c2c(N)c1C(=O)O`, the EC50 [1] was 0.6 mM.

Compound `CC(C)CNC(=O)C(=O)NCc1ccc(-c2cncc(C(=O)O)c2N)o1` has an EC50 [1] of 26.5 mM.

Work on `CC(C)[C@@H](CC(=O)Nc1cncc(C(=O)O)c1N)NC(=O)[C@@H](N)C1CCCCC1` yielded an EC50 [1] of 18.4 mM.

With `Nc1c(NC(=O)CC[C@H](Cc2ccccc2)NC(=O)[C@@H](N)C2CCCCC2)cncc1C(=O)O` the EC50 [1] was 8.5 mM.

`CC[C@H](C)[C@H](N)C(=O)NCc1ccc(-c2cncc(C(=O)O)c2N)o1` gave an EC50 [1] of 10 mM.

`CC(=O)NCc1ccc(-c2cncc(C(=O)O)c2N)o1` showed an EC50 [1] of 27.1 mM.

For `CC(C)C[C@@H](CC(=O)Nc1cncc(C(=O)O)c1N)NC(=O)[C@@H](N)C1CCCCC1`, the EC50 [1] was 22.7 mM.

From BindingDB's records for doi:10.1021/acsmedchemlett.9b00051 (Ajinomoto, 2019)
